Test results as given in US20050203119A1, “Dihydropyridine compounds for treating or preventing metabolic disorders” (priority 2003, published 2005).

What was measured:
Lepr db mice = experiment: Oral glucose tolerance test in Lepr db mice (Example 120); assay type: in vivo, mouse
Experimental: Compound 39 (25, 50 and 100 mg/kg) and vehicle (0.5% Methylcellulose) were administered orally at one hour before glucose loading (2 g/kg, PO) to Lepr db mice fasted for about 4 hours. Blood samples were collected sequentially from the retro-orbital sinus at pre-treatment one day before and about 1 and about 2 hours after glucose loading. Serum glucose values were obtained at about 1 and about 2 hours after glucose loading, percentage reductions were expressed as percentage of corresponding vehicle control values and unpaired Student's t test was then applied for comparison between test substance and vehicle group. Differences are considered significant at P<0.05 level.

[1] = test system: male db/db mice (BKS.Cg-m+/+Lepr db/J); experiment: Oral glucose tolerance test (OGTT) in db/db mice (Example 122, FIG. 4); assay type: in vivo, mouse; conditions: orally dosed
Experimental: To determine the effect of a test compound on blood glucose levels in diabetic mice, intraperitoneal and/or oral glucose tolerance tests (IPGTT and OGTT, respectively) were conducted. Six to eight week old, male db/db mice (BKS.Cg-m+/+Lepr^db/J; stock number 000642), homozygous for a mutation in the gene encoding the leptin receptor, were purchased from The Jackson Laboratory (Bar Harbor, Me. USA). Animals were singly housed in conventional caging on a 12 hr/12 hr light/dark cycle, acclimated for at least five days prior to use and fed normal laboratory chow ad libitum between experiments. Studies were conducted with animals between seven and fourteen weeks of age. […]
To perform an IPGTT or OGTT, db/db mice were fasted overnight beginning on day 0 at −17.5 to −18.5 hrs relative to the glucose dose on day 1 (all time points below are stated relative to the time of an intraperitoneal or oral glucose dose on day 1). At −4.5 hrs, animals were weighed, blood was collected by tail vein lancing and fasted blood glucose levels determined using a hand-held glucometer (MediSense Precision Xtra or LifeScan OneTouch Ultra). […] Blood glucose levels were determined as above at −45 min and +45 min, and also +90 min and/or +150 min (see FIG. 3 and the Table in this section). Alternatively, blood glucose levels were determined at −30 min, +30 min, +60 min and +120 min (see FIGS. 4 and 5). […]

[2] = test system: Male ZDF rats (ZDF/GmiCrl-fa/fa); experiment: Oral glucose tolerance test in fasted ZDF rats after 8 days of dosing (Example 124, FIG. 10); assay type: in vivo, rat; conditions: OGTT
Experimental: Male ZDF rats (ZDF/GmiCrl-fa/fa), homozygous for a mutation in the gene encoding the leptin receptor, were purchased from Charles River Laboratories (Wilmington, Mass., USA). Animals were individually housed in clear polycarbonate cages (contact bedding) on a 12 hr/12 hr light/dark cycle, acclimated for at least one week prior to use and fed normal laboratory chow (Purina No. 5008) ad libitum. Studies were conducted with animals starting between eleven and twelve weeks of age. Animals were used for a single study before being replaced. […] As noted above, animals were dosed on day 8 on the same schedule as was used for days 1 through 7 of the 7DBG study. […] Serum glucose levels were determined using a laboratory analyzer. […] This may be due to the dose of metformin (250 mg/kg) that was used, which may be too high to observe any synergy between the two compounds. […] The indicated time points are relative to the oral glucose dose.

## CCOC(=O)C1=C(COCCN)NC2=C(C(=O)CC(C)(C)C2)C1c1cccnc1 (stereo not drawn) [Compound 39, 2-(2-Amino-ethoxymethyl)-7,7-dimethyl-5-oxo-4-pyridin-3-yl-1,4,5,6,7,8-hexahydro-quinoline-3-carboxylic acid ethyl ester]
Lepr db mice; 0 hr (pre-treatment one day before), 25 mg/kg group
  Serum Glucose: 375.9 ± 16.3 mg/dL
Lepr db mice; 0 hr (pre-treatment one day before), 50 mg/kg group
  Serum Glucose: 371.1 ± 15.2 mg/dL
Lepr db mice; 0 hr (pre-treatment one day before), 100 mg/kg group
  Serum Glucose: 340.7 ± 14.2 mg/dL
Lepr db mice; 1 hr after glucose loading (2 g/kg PO), 25 mg/kg orally
  Serum Glucose: 379.3 ± 18.5 mg/dL
Lepr db mice; 1 hr after glucose loading (2 g/kg PO), 50 mg/kg orally
  Serum Glucose: 415.6 ± 11.0 mg/dL
Lepr db mice; 1 hr after glucose loading (2 g/kg PO), 100 mg/kg orally
  Serum Glucose: 366.2 ± 17.3 mg/dL
Lepr db mice; 1 hr after glucose loading, 25 mg/kg orally
  serum glucose % Reduction relative to vehicle: (19.3) %
Lepr db mice; 1 hr after glucose loading, 50 mg/kg orally
  serum glucose % Reduction relative to vehicle: (11.6) %
Lepr db mice; 1 hr after glucose loading, 100 mg/kg orally
  serum glucose % Reduction relative to vehicle: (22.1) %
Lepr db mice; 2 hr after glucose loading (2 g/kg PO), 25 mg/kg orally
  Serum Glucose: 331.1 ± 14.5 mg/dL
Lepr db mice; 2 hr after glucose loading (2 g/kg PO), 50 mg/kg orally
  Serum Glucose: 346 ± 16.8 mg/dL
Lepr db mice; 2 hr after glucose loading (2 g/kg PO), 100 mg/kg orally
  Serum Glucose: 301.3 ± 28.4 mg/dL
Lepr db mice; 2 hr after glucose loading, 25 mg/kg orally
  serum glucose % Reduction relative to vehicle: (11.8) %
Lepr db mice; 2 hr after glucose loading, 50 mg/kg orally
  serum glucose % Reduction relative to vehicle: (7.8) %
Lepr db mice; 2 hr after glucose loading, 100 mg/kg orally
  serum glucose % Reduction relative to vehicle: (19.7) %
[1]
  glucose intolerance relative to vehicle-treated animals (FIG. 4): decreased
[2]; after daily oral dosing for 8 days
  glucose intolerance relative to vehicle-treated animals (FIG. 10): decreased
[2]; metformin 250 mg/kg
  effect of metformin on glucose tolerance in combination with Compound 39 (FIG. 10): did not appear to enhance
